Structures can show the parent of a compound that is named as a salt.

This note sets out measurements from patent publication US9062028B2, “Bicyclic nitrogen containing heteroaryl TGR5 receptor modulators” (Bristol-Myers Squibb Company, priority 2011, dated 2015).

The assay concerns the target T1, recombinant human TGR5 (Homo sapiens, UniProt Q8TDU6).
T1 construct: expressed in transfected cells
T1 sequence (Q8TDU6 1-330): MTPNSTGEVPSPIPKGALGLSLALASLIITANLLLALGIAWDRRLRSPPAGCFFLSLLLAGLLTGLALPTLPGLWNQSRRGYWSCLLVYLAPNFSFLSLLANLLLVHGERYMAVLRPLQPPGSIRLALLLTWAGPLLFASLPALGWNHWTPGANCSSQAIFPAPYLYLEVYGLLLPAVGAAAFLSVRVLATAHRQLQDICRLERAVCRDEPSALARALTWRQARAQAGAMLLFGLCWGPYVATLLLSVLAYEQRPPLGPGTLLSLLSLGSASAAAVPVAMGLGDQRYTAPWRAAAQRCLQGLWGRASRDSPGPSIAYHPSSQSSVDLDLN
Kind of assay: cAMP assay (cAMP accumulation, HTRF) in CHOK1 cells stably expressing TGR5. Type of assay: cell-based. To be noted: CHOK1 cells stably expressing human TGR5, 30 minutes at RT, 1% DMSO. The method, then:
The in vitro modulation of recombinant human TGR5 was determined as follows.
A human TGR5 expression construct of human TGR5 was integrated into the genome of a CHOK1 cell line (Invitrogen). Once a stable CHOK1 cell line was generated, the cells were incubated for 5-10 minutes in culture medium consisting of F-12 (Invitrogen#11765-047) supplemented with 10% fetal bovine serum.
On the day of the cAMP accumulation assay, cells stably expressing the […] TGR5 construct were centrifuged at 1000 rpm for 5 minutes. The medium was aspirated and the cells were resuspended in 5 mL of assay buffer (phosphate-buffered saline with Ca^2+ and Mg^2+, Invitrogen#14040). The cells were counted using 1:2 dilution and then adjusted to 0.4-0.5×10^6 cells/mL in assay buffer, if necessary. Isobutylmethylxanthine (IBMX, Sigma#I5879) was added via a 1:5000 dilution to make a 0.1 mM final concentration and then 10 μL of the media were transferred to each well of a 384 well poly-D-lysine coated solid white plate (BD #35-6661) pre-dotted with 100 nL of with the desired concentration of compound added from a concentrated stock dissolved in dimethyl sulfoxide (DMSO) to give a final concentration of 1% DMSO in the assay. The plates were covered and incubated for 30 minutes at RT. cAMP accumulation was measured using the CisBio homogeneous time resolved fluorescence (HTRF) assay kit (#62AM2PEC) following the manufacturer's protocol. Briefly, 5 μl each of the cAMP-HTRF fluorescence detection reagents were added to each well, and the samples were incubated for at least one hour at room temperature. Fluorescence was excited at 320 nm and measured at 665 and 620 nm using the Envision instrument (Perkin Elmer), the fluorescence ratio of 665/620 was calculated and converted to nanomolar concentrations of cAMP in each well by interpolation from a cAMP standard curve. The concentration-response curves and EC50 values were calculated with a four parameter logistic curve fit equation utilizing Excel/XLfit software (Microsoft and IDBS). The EC50 value was calculated as the concentration of agonist which increased the cAMP concentration to a value halfway between the baseline and the maximum.
As a reminder, the EC50 is the midpoint of the concentration-response curve. As to `Cc1cccc(OCCCC(=O)N2CCCc3c(-c4cnn(Cc5cccc(C(=O)N(C)[C@@H](CC(=O)O)C(=O)O)c5)c4)cccc32)c1C` [Example 481, (S)-2-(3-((4-(1-(4-(2,3-Dimethylphenoxy)butanoyl)-1,2,3,4-tetrahydroquinolin-5-yl)-1H-pyrazol-1-yl)methyl)-N-methylbenzamido)succinic acid], the EC50 was 1.53 µM.

On to `Cc1cccc(OCCCC(=O)N2CCCc3c(-c4cccc(C(=O)NCC(=O)O)c4)cccc32)c1C` [Example 138, 2-(3-(1-(4-(2,3-Dimethylphenoxy)butanoyl)-1,2,3,4-tetrahydroquinolin-5-yl)benzamido)acetic acid], for which the EC50 was determined as 3.46 µM. As for `Cc1cccc(OCCCC(=O)N2CCCc3c(-c4cnn(Cc5cccc(C(=O)N(C)CCS(=O)(=O)O)c5)c4)cccc32)c1C` [Example 829, 2-(3-((4-(1-(4-(2,3-Dimethylphenoxy)butanoyl)-1,2,3,4-tetrahydroquinolin-5-yl)-1H-pyrazol-1-yl)methyl)-N-methylbenzamido)ethanesulfonic acid], the figure is 1.35 µM; as for `Cc1cccc(OCCCC(=O)N2CCCc3c(-c4cnn(Cc5c(F)cc(C(=O)NCCC(=O)O)cc5Cl)c4)cccc32)c1C` [Example 176, 3-(3-Chloro-4-((4-(1-(4-(2,3-dimethylphenoxy)butanoyl)-1,2,3,4-tetrahydroquinolin-5-yl)-1H-pyrazol-1-yl)methyl)-5-fluorobenzamido) propanoic acid], 0.047 µM; as for `Cc1c(Cl)cccc1OCCOC(=O)N1C[C@@H]2C[C@@H]2c2c(-c3cnn(Cc4cc(OCCOCC(=O)O)ccc4Cl)c3)cccc21` [Example 448, 2-(2-(4-Chloro-3-((4-((1aR,7bS)-3-((2-(3-chloro-2-methylphenoxy)ethoxy)carbonyl)-1a,2,3,7b-tetrahydro-1H-cyclopropa[c]quinolin-7-yl)-1H-pyrazol-1-yl)methyl)phenoxy)ethoxy)acetic acid], 0.183 µM. As for `Cc1cccc(OCCCC(=O)N2CCCc3c(-c4cccc(COC(=O)NCC(F)(F)C(=O)O)c4)cccc32)c1C` [Example 297, 3-((3-(1-(4-(2,3-Dimethylphenoxy)butanoyl)-1,2,3,4-tetrahydroquinolin-5-yl)benzyloxy)carbonylamino)-2,2-difluoropropanoic acid], the figure is 0.687 µM. As for `Cc1cccc(OCCCC(=O)N2CCCc3c(-c4cnn(Cc5ccc[n+](C)c5)c4)cccc32)c1C` [Example 467, 3-((4-(1-(4-(2,3-Dimethylphenoxy)butanoyl)-1,2,3,4-tetrahydroquinolin-5-yl)-1H-pyrazol-1-yl)methyl)-1-methylpyridinium], the figure is 2.96 µM; as for `Cc1c(Cl)cccc1OCCOC(=O)N1C[C@@H]2C[C@@H]2c2c(-c3cnn(Cc4cc(C(=O)NCS(=O)(=O)O)ccc4Cl)c3)cccc21` [Example 662, (4-Chloro-3-((4-((1aR,7bS)-3-((2-(3-chloro-2-methylphenoxy)ethoxy)carbonyl)-1a,2,3,7b-tetrahydro-1H-cyclopropa[c]quinolin-7-yl)-1H-pyrazol-1-yl)methyl)benzamido) methanesulfonic acid], 0.036 µM. For the molecule `Cc1c(OCCCC(=O)N2CCCc3c(-c4cnn(Cc5cccc(C(=O)O)c5)c4)cccc32)cccc1C(F)(F)F` [Example 32, 3-((4-(1-(4-(2-Methyl-3-(trifluoromethyl)phenoxy)butanoyl)-1,2,3,4-tetrahydroquinolin-5-yl)-1H-pyrazol-1-yl)methyl)benzoic acid], the EC50 amounted to 0.586 µM. As for `Cc1c(Cl)cccc1OCCCC(=O)N1CCSc2c(-c3cnn(Cc4cccc(C(=O)NCCC[C@H](N)C(=O)OC(C)C)c4)c3)cccc21` [Example 635, (S)-Isopropyl 2-amino-5-(3-((4-(4-(4-(3-chloro-2-methylphenoxy)butanoyl)-3,4-dihydro-2H-benzo[b][1,4]thiazin-8-yl)-1H-pyrazol-1-yl)methyl)benzamido)pentanoate, TFA salt], the figure is 0.177 µM; as for `Cc1cccc(OCCCC(=O)N2C[C@@H]3C[C@@H]3c3c(-c4cnn(Cc5cccc(C(=O)NCCS(=O)(=O)O)c5)c4)cccc32)c1C` (single isomer, unassigned) [Example 240], 0.049 µM. Turning to `Cc1cccc(OCCCC(=O)N2CCCc3c(-c4cccc(COC(=O)NC(C)CC(=O)O)c4)cccc32)c1C` (stereo not shown) [Example 275, 3-((3-(1-(4-(2,3-Dimethylphenoxy)butanoyl)-1,2,3,4-tetrahydroquinolin-5-yl)benzyloxy)carbonylamino) butanoic acid], the EC50 turned out to be 0.608 µM. As to `Cc1c(Cl)cccc1OCCCC(=O)N1CCSc2c(-c3cnn(Cc4cccc(C(=O)NCC(=O)O)c4)c3)cccc21` [Example 566, 2-(3-((4-(4-(4-(3-Chloro-2-methylphenoxy)butanoyl)-3,4-dihydro-2H-benzo[b][1,4]thiazin-8-yl)-1H-pyrazol-1-yl)methyl)benzamido)acetic acid], the EC50 came to 0.035 µM. As for `Cc1cccc(OCCCC(=O)N2CCCc3c(-c4cnn(Cc5cccc(C(=O)N6CCCC(CO)C6)c5)c4)cccc32)c1C` (stereo not shown) [Example 830, 4-(2,3-Dimethylphenoxy)-1-(5-(1-(3-(3-(hydroxymethyl)piperidine-1-carbonyl)benzyl)-1H-pyrazol-4-yl)-3,4-dihydroquinolin-1(2H)-yl)butan-1-one], the figure is 0.176 µM; as for `Cc1cccc(OCCCC(=O)N2CCCc3c(-c4cccc(COC(=O)NCC[C@H](O)C(=O)O)c4)cccc32)c1C` [Example 273, (S)-4-((3-(1-(4-(2,3-Dimethylphenoxy)butanoyl)-1,2,3,4-tetrahydroquinolin-5-yl)benzyloxy)carbonylamino)-2-hydroxybutanoic acid], 0.646 µM. `Cc1c(Cl)cccc1OCCOC(=O)N1C[C@@H]2C[C@@H]2c2c(-c3cnn(Cc4cc(C(=O)NC5(CC(=O)O)COC5)ccc4Cl)c3)cccc21` [Example 698, 2-(3-(4-Chloro-3-((4-((1aR,7bS)-3-((2-(3-chloro-2-methylphenoxy)ethoxy)carbonyl)-1a,2,3,7b-tetrahydro-1H-cyclopropa[c]quinolin-7-yl)-1H-pyrazol-1-yl)methyl)benzamido)oxetan-3-yl)acetic acid]: the EC50 was 0.028 µM. Regarding `Cc1cccc(OCCCC(=O)N2CCCc3c(-c4cccc(COC(=O)N[C@H](Cc5c[nH]cn5)C(=O)O)c4)cccc32)c1C` [Example 288, (R)-2-((3-(1-(4-(2,3-Dimethylphenoxy)butanoyl)-1,2,3,4-tetrahydroquinolin-5-yl)benzyloxy)carbonylamino)-3-(1H-imidazol-4-yl)propanoic acid], the EC50 turned out to be 3.95 µM. With `Cc1cccc(OCCCC(=O)N2CCCc3c(-c4cccc(COC(=O)N[C@@H](CC(=O)O)C(=O)O)c4)cccc32)c1C` [Example 268, (S)-2-((3-(1-(4-(2,3-Dimethylphenoxy)butanoyl)-1,2,3,4-tetrahydroquinolin-5-yl)benzyloxy)carbonylamino)succinic acid], the EC50 turned out to be 5.02 µM. As for `Cc1cccc(OCCCC(=O)N2CCCc3c(-c4cnn(Cc5c(F)cc(C(=O)NCC(=O)O)cc5Cl)c4)cccc32)c1C` [Example 177, 2-(3-Chloro-4-((4-(1-(4-(2,3-dimethylphenoxy)butanoyl)-1,2,3,4-tetrahydroquinolin-5-yl)-1H-pyrazol-1-yl)methyl)-5-fluorobenzamido)acetic acid], the figure is 0.048 µM.
